# According to patent US7429396B2, “Antifungal composition, its fungicidal effect on pathogenic dermatophytes, and process for inhibiting growth of fungi” (Bio-Botanica, Inc., priority 2003, dated 2008):
# Key:
# Format in all cases: cell-based
# [1] = test system: Trichophyton mentagrophytes ATCC 9533; assay: Macrodilution broth MIC/MFC test on dermatophytes (Example 4); details: for MIC: Trichophyton mentagrophytes, ATCC9533, read-out: Minimum Inhibitory Concentration (MIC)
# Method: (§1) The organisms used included Epidermophyton floccosum ATCC 52066, Trichophyton mentagrophytes ATCC 9533, and Microsporum canis ATCC 36299. The molds were cultured on Oatmeal Agar slants to allow for conidial formation and incubated for 7 days at 25° C. For each mold, 5 ml of sterile 0.85% NaCl was added to each slant, the culture surface was rubbed with a sterile wooden applicator stick, and the suspension was then transferred to a sterile tube. By comparison to the McFarland 0.5 turbidity standard, the suspension was adjusted by adding sterile 0.85% NaCl as necessary. The resulting suspension was c.1×10^8 CFU/ml. Then 300 μl of organism suspension was added to 10 ml of sterile saline, diluting it to c.1×10^6 CFU/ml.
# (§2) The Macrodilution broth method was performed using serial two-fold dilutions of RPMI-1640 (Sigma) with L-glutamine but without sodium bicarbonate.
# (§3) Six 18×150 tubes of RPMI-1640 were used for each organism tested. Starting with tube 1 containing 20 ml RPMI labeled as 0.250 μl/ml and then tubes 2 through 6 containing 10 ml RPMI labeled as 0.125 μl/ml, 0.06 μl/ml, 0.03 μl/ml, 0.015 μl/ml, and 0.008 μl/ml respectively. • 1. 26 μl of each product of Examples 1-3 was added to 1000 μl DMSO. The final concentration of DMSO is kept below 1%. • 2. 200 μl of the sample dilution (26 μl/ml) was added to tube 1 (20 ml of RPMI-1640) making an initial concentration of 0.250 μl/ml. • 3. A serial dilution was performed, pipetting 10 ml from tube 1 to tube 2; continuing the dilution to tube 6.
# (§4) For the Clotrimazole, Mycelex® and Ciclopirox Olamine, ten 18×150 tubes of RPMI-1640 were used for each organism tested. Starting with tube 1 containing 20 ml RPMI labeled 16 μg/ml and then tubes 2 through 10 containing 10 ml RPMI labeled as 8.0 μg/ml, 4.0 μg/ml, 2.0 μg/ml, 1.0 μg/ml, 0.50 μg/ml, 0.25 μg/ml, 0.125 μg/ml, 0.06 μg/ml and 0.03 μg/ml respectively. • 1. 160 mg of active ingredient was added to 100 ml DMSO. • 2. 200 μl of the sample dilution (1600 μg/ml) was added to tube 1 (20 ml of RPMI-1640) making an initial concentration of 16 μg/ml. • 3. A serial dilution was performed, pipetting 10 ml from tube 1 to tube 2; continuing the dilution to tube 10. Inoculation and Incubation
# (§5) Once the tubes were arranged according to product, concentration and mold type, 300 μl of appropriate mold inoculum was added to each tube and the tubes were then placed in an incubator at 35° C. along with a purity plate for inoculum verification for each mold. The final mold inoculum level was c.1×10^4 CFU/ml. As controls, one tube with 10 ml RPMI was used for the “Negative Control”, and 3 tubes with 10 ml RPMI plus 300 μl mold inoculum were used for the positive controls (one for each mold).
# (§6) Final results were recorded after 7 days. Growth (G) was noted when there was full growth visible (i.e. the tube appeared as cloudy as the positive control tube). Partial activity (P) was recorded when the broth in the tube was less turbid than the positive control tube. No growth (I) was recorded when there was total inhibition and the broth in the tube appeared clear (in comparison with the negative control tube).
# (§7) The MIC measures fungistatic activity as the lowest concentration that will inhibit growth of the mold. […] The MIC for an azole is the lowest concentration capable of inhibiting 80% growth, which would be a result of partial inhibition (P), one dilution below full inhibition.
# (§8) The MFC measures the lowest concentration of the test agent that will kill the fungi. The fungicidal activity of the products was determined by subculturing 20 μl from tubes with no visible growth onto properly labeled SDA plates. Also 20 μl from the last tube with growth and 20 μl from the positive control tube were subcultured as controls. All plates were incubated at 25° C. for 14 days. The MFC was recorded as the lowest concentration showing no growth or <3 colonies of growth, which equals 99-99.5% killing activity.
# [2] = test system: Epidermophyton floccosum ATCC 52066; assay: as above; details: for MIC: Epidermophyton floccosum, ATCC52066, read-out: Minimum Inhibitory Concentration (MIC)
# Method: as §1, §2, §3, §4, §5, §6, §7, §8
# [3] = test system: Microsporum canis ATCC 36299; assay: as above; details: for MIC: Microsporum canis, ATCC36299, read-out: Minimum Inhibitory Concentration (MIC)
# Method: as §1, §2, §3, §4, §5, §6, §7, §8
# [4] = test system: all organisms (Epidermophyton floccosum, Trichophyton mentagrophytes, Microsporum canis); assay: Macrodilution broth MIC/MFC, all dermatophytes tested (Example 4); details: for MIC: all dermatophytes
# Method: as §1, §2, §3, §4, §5, §6, §7, §8
SMILES,"growth score, MIC test ([1]; 16.0 μg/ml)",MIC [1],"growth score, MIC test ([2]; 8.0 μg/ml)","growth score, MIC test ([2]; 16.0 μg/ml)",MIC [2],"growth score, MIC test ([3]; 8.0 μg/ml)","growth score, MIC test ([3]; 16.0 μg/ml)",MIC [3],MIC to Inhibit all organisms [4],concentration at which still unable to kill the dermatophytes (MFC) [4],fungistatic or fungicidal activity [4],MIC [4],also measured
Clc1ccccc1C(c1ccccc1)(c1ccccc1)n1ccnc1 [Clotrimazole],I,0.06 µg/mL,I,I,0.06 µg/mL,I,I,0.06 µg/mL,0.000006%,greater than 4 μg/ml,fungistatic not fungicidal,0.06 µg/mL,"growth score, MIC test ([1]; 0.125 μg/ml): I; growth score, MIC test ([1]; 0.250 μg/ml): I; growth score, MIC test ([1]; 0.50 μg/ml): I; growth score, MIC test ([1]; 1.0 μg/ml): I; growth score, MIC test ([1]; 2.0 μg/ml): I; growth score, MIC test ([1]; 4.0 μg/ml): I; growth score, MIC test ([1]; 8.0 μg/ml): I; growth score, MIC test ([2]; 0.125 μg/ml): I; growth score, MIC test ([2]; 0.250 μg/ml): I; growth score, MIC test ([2]; 0.50 μg/ml): I; growth score, MIC test ([2]; 1.0 μg/ml): I; growth score, MIC test ([2]; 2.0 μg/ml): I; growth score, MIC test ([2]; 4.0 μg/ml): I; growth score, MIC test ([3]; 0.125 μg/ml): I; growth score, MIC test ([3]; 0.250 μg/ml): I; growth score, MIC test ([3]; 0.50 μg/ml): I; growth score, MIC test ([3]; 1.0 μg/ml): I; growth score, MIC test ([3]; 2.0 μg/ml): I; growth score, MIC test ([3]; 4.0 μg/ml): I"
Cc1cc(C2CCCCC2)n(O)c(=O)c1 [Ciclopirox Olamine],I,16 µg/mL,I,I,8 µg/mL,I,I,4 µg/mL,0.0016%,greater than 32 μg/ml,fungistatic not fungicidal,16 µg/mL,–
